Measurements: ChEMBL document CHEMBL1240391, “High prevalence of ST131 isolates producing CTX-M-15 and CTX-M-14 among extended-spectrum-beta-lactamase-producing Escherichia coli isolates from Canada” (2010)

Key:
Type in all cases: functional
Escherichia coli [1] = assay: Antimicrobial activity against CTX-M15/CTX-M14 ESBL producing Escherichia coli ST131 clonal complex isolate assessed as nonsusceptible isolates by CLSI method
Escherichia coli [2] = assay: Antimicrobial activity against ESBL producing Escherichia coli assessed as nonsusceptible isolates by CLSI method
Escherichia coli [3] = assay: Antimicrobial activity against Escherichia coli assessed as nonsusceptible isolates by CLSI method

| Compound | Activity (Escherichia coli [1]) | Activity (Escherichia coli [2]) | Activity (Escherichia coli [3]) |
| --- | --- | --- | --- |
| NCC[C@H](O)C(=O)N[C@@H]1C[C@H](N)[C@@H](O[C@H]2O[C@H](CN)[C@@H](O)[C@H](O)[C@H]2O)[C@H](O)[C@H]1O[C@H]1O[C@H](CO)[C@@H](O)[C@H](N)[C@H]1O [AMIKACIN] | 45% | 35% | 39% |
| O=C1CN(/N=C/c2ccc([N+](=O)[O-])o2)C(=O)N1 [NITROFURANTOIN] | 4% | 12% | 8% |
| NC[C@H]1O[C@H](O[C@H]2[C@H](O)[C@@H](O[C@H]3O[C@H](CO)[C@@H](O)[C@H](N)[C@H]3O)[C@H](N)C[C@@H]2N)[C@H](N)C[C@@H]1O [TOBRAMYCIN] | 93% | 49% | 69% |
| GENTAMICIN | 67% | 35% | 50% |
